Measurements: patent US10711041B2, “Lyophilisate containing a cyclic peptide of formula X1-[sequence]-X2” (priority 2013, dated 2020)

Assays:
[1] = Aerosol droplet size characterisation (laser diffraction / impactor); format: physicochemical
From the text: By means of a nebulizer which converts aqueous solution into an aerosol, also the aqueous solutions of the cyclic peptides of amino acid sequence SEQ ID NO:1 to SEQ ID NO:6 may be converted into aerosols. Such aerosols can be characterized with respect to the medium droplet size, as well as to size distribution of the aerosol droplets. For that conventional methods are used, which are described also in pharmacopoeias. The one analytical method uses the cascade impactor in its actual construction, the “Next Generation Impactor”. Thereby the aerosol is conducted through a series of sieve plates, whereby the diameter of the holes is diminished with each plate and the amount of the holes is increased. In the other analytical method, the laser-diffraction measurement, the droplet sizes are determined by means of laser. The 2 important parameters which are determined during these measurements, one the one hand is the median of the diameter of all droplets, and on the other hand, the amount of droplets having a diameter of ≤5 μm. In the literature that diameter is described as a limit, under which inhaled aerosol particles arrive in fact in the lung.
(§1) It is ramblingly known, that in practice from a generated aerosol only a part is available for the patient. Thus, for determining the amount of aerosol which is available for a user, trials with a breathing simulator were carried out. For investigating the particle size and for the implementation of the breathing simulation an aerosol from an aqueous solution of the cyclic peptide of amino acid sequence SEQ ID NO:1 was used. For generating aerosol different nebulizer types were used. The nebulizers A and B were so called “Mesh-Type nebulizers”.

[2] = Breathing simulator, amount of aerosol available for inhalation; format: physicochemical; details: nebulizers Type A and Type B
Procedure: as §1

C[C@@H]1NC(=O)CNC(=O)[C@H](CCC(=O)O)NC(=O)[C@@H]2CCCN2C(=O)[C@H]([C@@H](C)O)NC(=O)[C@H](CCC(=O)O)NC(=O)[C@H](CCCNC(=N)N)NC(=O)[C@H](CCC(N)=O)NC(=O)CNC(=O)[C@@H](N)CSSC[C@@H](C(=O)O)NC(=O)[C@H](Cc2ccc(O)cc2)NC(=O)[C@H](Cc2c[nH]c3ccccc23)NC(=O)[C@@H]2CCCN2C(=O)[C@H](CCCCN)NC(=O)[C@H](C)NC(=O)[C@H](CCC(=O)O)NC1=O [SEQ ID NO: 1]
amount of droplets with a diameter of ≤5 μm in the aerosol ([1]; all nebulizers): at least 50% | Amount of particles with Ø ≤5 μm ([1]; nebulizer Type A): 50% | Median particle diameter of aerosol ([1]; nebulizer Type A): 4.7 μm | Amount of particles with Ø ≤5 μm ([1]; nebulizer Type B): 70% | Median particle diameter of aerosol ([1]; nebulizer Type B): 3.3 μm | Amount of particles with Ø ≤5 μm ([1]; nebulizer Type C): 65% | Median particle diameter of aerosol ([1]; nebulizer Type C): 3.7 μm | part of the aerosol available for inhalation (inhalation filter) [2]: predominant part
